Two compounds from patent US8709741B2, “Methods of diagnosing a plasmodium infection” (priority 2009, dated 2014) can be followed below.

Holding throughout (assay type): cell-based
Assay [1] deals with P. falciparum. Put plainly: Involvement of enzymatic activity in GX sPLA2-induced inhibition of parasite growth (schizont-enriched culture, 24 h). Particulars: 37.5 μM LY329722 plus 50 nM GX sPLA2, 24 h. How it is done:
Parasitaemia (%) at t 0 h and t 24 h were determined from Diff Quick-stained smears. Y axis states increase of parasitaemia (A parasitaemia (%)), expressed as parasitaemia at t 24 h-parasitaemia at t 0 h;
Parasitaemia (%) before incubation, and after 24 h of incubation, was determined from Diff Quick-stained smears. Parasite growth was expressed as the percent delta of parasitaemia, using the following formula:
ΔP=[(Px−P0)/(P100−P0)]×100; where ΔP is in percent, P0 is the parasitaemia (%) in the initial culture, P100 is the parasitaemia (%) after 24 h in normal culture conditions, and Px is the parasitaemia (%) after 24 h in experimental conditions.

Assay [2] concerns P. falciparum FcB1/Colombian strain. Nature of the assay: Anti-Plasmodium activity assay (dose-response, 3H-hypoxanthine incorporation), culture with human serum. As to conditions: read-out: IC50 on Plasmodium intra-erythrocytic development. How it is done:
The chloroquine-resistant P. falciparum FcB1/Colombian strain was used. Under the following culture conditions, the in vitro life cycle of the FcB1 strain was 48 hours. Cultures were grown in complete medium consisting of RPMI 1640 (Life Technologies, Inc.) supplemented with 11 mM glucose, 27.5 mM NaHCO3, 100 UI/mL penicillin, 100 μg/mL streptomycin, adjusted to pH 7.4 before addition of heat-inactivated human serum (A+ blood group, 8% final) or Albumax II® (0.5% final), according to the procedure of Trager and Jensen (1976). Parasites were routinely grown at 37° C. in human A+ RBCs (Red blood cells) at a 2% haematocrit and 2-6% parasitemia, in a 3% CO2, 6% O2 and 91% N2 atmosphere. Semi-synchronized cultures were established by Sorbitol (Lambros) treatment. Highly synchronized cultures (4 hour-window synchronization) were obtained by successive Plamion (Pasvol) and Sorbitol treatments. Parasitaemia and stage distribution were determined by optical examination of Diff-Quick stained culture smears. Parasitaemia (expressed in percent) is hundred times the number of parasitized erythrocytes divided by the total number of erythrocytes.
Dried preparations of the purified recombinant human sPLA2s were re-suspended at high concentration (usually 50 μM) in RPMI 0.05% BSA, and then tested individually for their capacity to inhibit the in vitro intra-erythrocytic development of P. falciparum. Dose-response assays based on ^3H-hypoxanthine incorporation by growing parasites were performed as in Guillaume et al. (2004). Radioactivity was measured with a 1450 Microbeta counter (Wallac, Perkin Elmer). Percentage of growth inhibition was calculated from the parasite-associated radioactivity compared with control without sPLA2. Values for the IC50 were determined from dose-response curves.

Assay [3] concerns P. falciparum FcB1 strain. Put plainly: In vitro chemosensitizing activity of PAF on hGX sPLA2 (response modification index). As to conditions: fixed sub-inhibitory PAF 25 μM, 37.5 μM and 50 μM. How it is done:
The effects of serial concentrations of PAF (platelet-activating factor) on the susceptibility of the P. falciparum FcB1 strain to GX sPLA2 were assessed in vitro. A P. falciparum culture (1% parasitaemia, 2% haematocrit) was incubated in a 96-well microplate with decreasing concentrations of the recombinant GX sPLA2 in the presence of a fixed, sub-inhibitory concentration of PAF. The response modification index (RMI) as a function of PAF concentration is represented. RMI is the ratio of the 50% inhibitory concentrations (IC50) for GX sPLA2 plus the concentration of PAF, and GX sPLA2 alone. An RMI of 1.0 represents no change in the IC50 for GX sPLA2 when combined with PAF. The RMI values<1.0 represent the degree of potentiation or synergism.
Quantitative analysis of the increased activity of recombinant hGX sPLA2 when combined with PAF was done by comparing concentration-response curves for hGX sPLA2 alone and in the presence of several fixed, sub-inhibitory concentrations of PAF. Effects of each fixed concentration of PAF on the response of the parasites (IC50) to hGX sPLA2 were expressed as the response modification index (RMI) (Oduola et al., 1998). The RMI was calculated by the following formula: RMI=IC50(A,B)/IC50(A), where drug A is hGX sPLA2 and B is PAF. An RMI of 1.0 represents no change in the IC50 for the recombinant hGX sPLA2 combined with PAF. […]

Where two headings read alike, the source gives them in different places.

On to `CCc1c(C(=O)C(N)=O)c2c(OCC(=O)O)cc(C)cc2n1Cc1ccccc1` [LY329722, sodium [3-aminooxalyl-1-benzyl-2-ethyl-6-methyl-1H-indol-4-yloxy]-acetic acid], for which the “effect on GX sPLA2-induced inhibition of parasite growth” value in assay [1] was “Inhibition of parasite growth was removed”.
As to platelet-activating factor [PAF], the figures for the IC50 in assay [2] (serum PAF-AH inhibited by Pefabloc) and in assay [2] (standard culture conditions) were 95 ± 2.8 µM and 82 ± 1.2 µM, respectively. The “response modification index (RMI) = IC50(GX sPLA2 + PAF)/IC50(GX sPLA2)” value in assay [3] is given as < 1.
